Laboratory results reported in patent US20190262453A1, “DESIGN AND COMPOSITION OF CELL-STABILIZED PHARMACEUTICAL FORMULATIONS” (THE REGENTS OF THE UNIVERSITY OF MICHIGAN, priority 2016, published 2019).
Read-outs that look alike come from different tables or passages of the source.

Columns and labels:
[1] = system: RAW264.7 cells
Protocol: Drug Uptake. Measurement of CFZ uptake in RAW264.7 cells was performed using a modified absorbance spectroscopy method using 9 M H2SO4 (pH<<0.1) to digest the entire cell population and extract CFZ from the cells. Cells at a very high seeding density of 50,000 cells/well, grown in a 96 well tissue culture plate in 280 μl/well of DMEM +10% FBS +1% P/S (growth media), were pre-incubated with varying concentrations of BafA1 (0-4 nM) and NPPB (0-200 μM) for 4 hours before adding CFZ dissolved in DMSO such that final concentrations of CFZ were in the range of 0-8 μM. Post 4 and 24 hours exposure to CFZ, growth media was aspirated out and the cells were washed with PBS twice before adding 100 μl/well of 9 M H2SO4 and incubated at room temperature for 30 minutes before spectrophotometric quantification using a Synergy 2 plate reader (BioTek, Winooski, Vt.) at 540 nm (Abs540) and 750 nm (Abs750) (for background). Standards were prepared on the same plate by adding 100 μl/well pre-determined standards of CFZ. Total uptake was reported as total picomoles of intracellular drug as measured and calculated using the standard curve.
Cell Viability Measurement: Comparing Wet Lab Experimental Study with Simulation Study. In order to compare wet lab experimental cell viability determination with that of model simulation, the rate at which drug accumulation occurred in the experimental study was calculated. […] Then, cell viability was calculated using the following equation: […]
In vitro analysis (CFZ accumulation). […] Furthermore, the following comparisons are reported as a percentage (%) of CFZ accumulation measured in uninhibited cells under the various tested CFZ concentrations and 8 μM CFZ concentration, in the wet lab experimental and simulation studies, respectively.

[2] = system: RAW264.7 cells; test: Cell viability (XTT assay); format: cell-based
Protocol: Cell Viability. Viability of RAW264.7 cells were performed using Cell Proliferation Kit II (XTT) (Roche Applied Science, Mannheim, Germany, Cat. No. 11465015001) using the manufacturer's instructions. […] Post 24 hours exposure to CFZ, the cells were incubated with the yellow XTT solution (final concentration 0.3 mg/ml) for 4 h. […] An increase in number of living cells directly correlates to the amount of orange formazan formed, as monitored by the solution absorbance at 500 nm (Abs500). The following formula was used to determine viability of drug and inhibitor treated cells using untreated cells (blank) as a control—Cell Viability=(Abs500, treated—Abs700,treated)/(Abs500, blank—Abs700,blank).

[3] = system: peritoneal macrophages; test: Peritoneal lavage: cell counts and CLDI-containing cells; format: in vivo, Mice; conditions: PBS-CFZ fed group, peritoneal cavity
Protocol: In order to deplete tissue macrophages, mice were treated with liposomes containing either 7 mg/mL clodronate or phosphate-buffered saline (PBS) (FormuMax Scientific Inc., Sunnyvale, Calif.) for up to six weeks. Liposomes were injected IP to eliminate macrophages of the liver, spleen, and peritoneal cavity. Mice were initially treated with 200 μL of liposomes, followed by 100 μL injections twice per week to ensure continual depletion of macrophages. Mice were fed CFZ or a control diet continuously for a four week period. Following two weeks of feeding, liposome treatment began for two weeks. After completing four weeks of feeding and two weeks of liposome treatment, the mice were sacrificed and tissues were collected. Following euthanasia, a small incision was made in the lower abdomen. […] The peritoneal lavage was centrifuged for 10 min at 400×g, 4° C,and then resuspended in DMEM media (Life Technologies). The cells were then plated onto 4 or 8 chamber coverglass (#1.5, Lab-Tek II, Nunc, Rochester, N.Y.) for imaging. The cells were allowed to attach overnight and then washed with media.

[4] = cited from earlier work
[5] = Mouse body weight and temperature during macrophage depletion and CFZ feeding; format: in vivo; conditions: mice, final measurement; four weeks diet, two weeks liposomes
Protocol: Mice (4 week old, male C57B16) were purchased from the Jackson Laboratory (Bar Harbor, Me.) and acclimatized for 1 week in a specific-pathogen-free animal facility. Clofazimine (CFZ) (C8895; Sigma, St. Louis, Mo.) was dissolved in sesame oil (Shirakiku, Japan) to achieve a concentration of 3 mg/ml, which was mixed with Powdered Lab Diet 5001 (PMI International, Inc., St. Louis, Mo.) to produce a 0.03% drug to powdered feed mix, and orally administered ad libitum for 4 weeks. A corresponding amount of sesame oil was mixed with chow for vehicle treatment (control). Mice were euthanized via carbon dioxide asphyxiation and exsanguination. Animal care was provided by the University of Michigan's Unit for Laboratory Animal Medicine (ULAM).
In order to deplete tissue macrophages, mice were treated with liposomes containing either 7 mg/mL clodronate or phosphate-buffered saline (PBS) (FormuMax Scientific Inc., Sunnyvale, Calif.) for up to six weeks. Liposomes were injected IP to eliminate macrophages of the liver, spleen, and peritoneal cavity. Mice were initially treated with 200 μL of liposomes, followed by 100 μL injections twice per week to ensure continual depletion of macrophages. […]
During the course of the experiment, the body weight and temperature of the mice were measured daily to track the impact of the loss of drug-sequestering cells on the general health of the mouse. […]

## CC(C)N=c1cc2n(-c3ccc(Cl)cc3)c3ccccc3nc-2cc1Nc1ccc(Cl)cc1 [CFZ, 3-(p-chloroanilino)-10-(p-chlorophenyl)-2, 10-dihydro-2-isopropyliminophenazine]
[1]; 2 nM BafA1, initial CFZ=4 μM, 4 hours
  CFZ accumulation relative to uninhibited cells: 80±13%
[1]; 2 nM BafA1, initial CFZ=4 μM, 24 hours
  CFZ accumulation relative to uninhibited cells: 67±12%
[1]; 2 nM BafA1, initial CFZ=6 μM, 4 hours
  CFZ accumulation relative to uninhibited cells: 75±11%
[1]; 2 nM BafA1, initial CFZ=6 μM, 24 hours
  CFZ accumulation relative to uninhibited cells: 71±19%
[1]; 2 nM BafA1, initial CFZ=8 μM, 4 hours
  CFZ accumulation relative to uninhibited cells: 63±9%
[1]; 2 nM BafA1, initial CFZ=8 μM, 24 hours
  CFZ accumulation relative to uninhibited cells: 67±12%
[1]; BafA1=4 nM, initial CFZ=4 μM, 4 hours
  CFZ accumulation relative to uninhibited cells: 29±4%
[1]; BafA1=4 nM, initial CFZ=4 μM, 24 hours
  CFZ accumulation relative to uninhibited cells: 42±6%
[1]; BafA1=4 nM, initial CFZ=6 μM, 4 hours
  CFZ accumulation relative to uninhibited cells: 47±9%
[1]; BafA1=4 nM, initial CFZ=6 μM, 24 hours
  CFZ accumulation relative to uninhibited cells: 38±9%
[1]; BafA1=4 nM, initial CFZ=8 μM, 4 hours
  CFZ accumulation relative to uninhibited cells: 43±8%
[1]; BafA1=4 nM, initial CFZ=8 μM, 24 hours
  CFZ accumulation relative to uninhibited cells: 26±4%
[1]; NPPB=50 μM, CFZ=4 μM, 24 hours
  CFZ accumulation relative to uninhibited cells: 73±10%
[1]; NPPB=50 μM, CFZ=6 μM, 24 hours
  CFZ accumulation relative to uninhibited cells: 73±17%
[1]; NPPB=50 μM, CFZ=8 μM, 24 hours
  CFZ accumulation relative to uninhibited cells: 72±10%
[1]; NPPB=100 μM, CFZ=4 μM, 24 hours
  CFZ accumulation relative to uninhibited cells: 46±5%
[1]; NPPB=100 μM, CFZ=6 μM, 24 hours
  CFZ accumulation relative to uninhibited cells: 41±12%
[1]; NPPB=100 μM, CFZ=8 μM, 24 hours
  CFZ accumulation relative to uninhibited cells: 41±7%
[1]; NPPB=200 μM, CFZ=4 μM, 24 hours
  CFZ accumulation relative to uninhibited cells: 30±7%
[1]; NPPB=200 μM, CFZ=6 μM, 24 hours
  CFZ accumulation relative to uninhibited cells: 32±12%
[1]; NPPB=200 μM, CFZ=8 μM, 24 hours
  CFZ accumulation relative to uninhibited cells: 37±7%
[1]; mouse, 8 µM
  rate of drug accumulation: ~0.01 picomol/cell/day
[1]; pre-incubated with various concentrations of NPPB, CFZ for 4 hours at varying concentrations
  change in CFZ accumulation in inhibited relative to uninhibited cells: no significant change
[2]; BafA1=4 nM and CFZ=10 μM, n=6
  cell viability: 76±13%
[2]; BafA1=6 nM, all concentrations of CFZ
  cell viability: 48-85%
[2]; BafA1=8 nM, all concentrations of CFZ
  cell viability: 33-77%
[2]; exposed to NPPB (all tested concentrations) prior to varying concentrations of CFZ
  cell viability: > 92%
[2]; incubation of the substance alone, RAW264.7, XTT
  effect on cell viability: no significant effect
[2]; up to 4 nM BafA1 prior to up to 8 μM CFZ
  cell viability: > 91%
[3]
  macrophages containing at least one intracellular CLDI: approximately 50%
[4]
  pharmacologically-relevant concentrations measured in serum: 1 to 20 μM
[5]
  Average Body Temperature (n = 3-4): 34.3 ± 0.3 °C
  Average Body Weight (n = 3-4): 25.7 ± 0.8 g
